On the set-up of this data set: Initial absorbance (@600 nm): dose or concentration left out as unconfirmed. The source says: The final criteria for the claimed composition is the ability for the dry product to redissolve into a soluble/colloidal water-based solution at an example concentration of 10 g/L. Before redissolving in water, the dry product is ground into a powder using any mechanical grinding/milling/pulverizing methods, in this case a mortar and pestle.

As to paramylon [Sample A], the “Absorbance at 60 min/Initial absorbance” value is given as 0.535, the “Initial absorbance (@600 nm)” value was found to be 1.950 and the “Solubility as defined by the absorbance method (soluble if the decrease is not more than 25% after 60 minutes)” value was “NOT SOLUBLE”.

These data come from patent US20210253747A1, “COMPOSITIONS OF SOLUBLE BETA GLUCAN AND RELATED METHODS” (KEMIN INDUSTRIES, INC., priority 2020, published 2021).
